This is an account of results in publication PMC6499371 (Chemical communications (Cambridge, England), 2019).

Molecules are shown by their SMILES.

The target of the assay is T1, porcine trehalase (Sus scrofa, UniProt I3LIR5).
T1 sequence (I3LIR5 24-556): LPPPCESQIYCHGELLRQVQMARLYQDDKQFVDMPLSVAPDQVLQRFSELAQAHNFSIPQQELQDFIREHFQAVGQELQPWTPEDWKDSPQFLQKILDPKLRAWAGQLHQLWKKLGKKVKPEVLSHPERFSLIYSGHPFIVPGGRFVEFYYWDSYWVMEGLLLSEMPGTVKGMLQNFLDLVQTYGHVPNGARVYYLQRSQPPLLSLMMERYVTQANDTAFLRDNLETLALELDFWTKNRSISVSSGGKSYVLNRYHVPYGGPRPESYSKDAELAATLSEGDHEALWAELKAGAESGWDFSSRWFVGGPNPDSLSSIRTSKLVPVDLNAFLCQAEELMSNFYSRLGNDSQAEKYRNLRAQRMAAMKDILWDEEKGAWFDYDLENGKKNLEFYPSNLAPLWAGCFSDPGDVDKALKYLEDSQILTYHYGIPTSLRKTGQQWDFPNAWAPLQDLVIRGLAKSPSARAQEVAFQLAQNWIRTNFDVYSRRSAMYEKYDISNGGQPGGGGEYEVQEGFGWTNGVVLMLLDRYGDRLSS
The assay is described as follows: UV spectrophotometric coupled assay of trehalose hydrolysis. In kind it is biochemical.

As a reminder, the IC50 is the concentration at which inhibition is half-maximal. `OC[C@H]1O[C@H](O[C@H]2O[C@H](CO)[C@@H](O)[C@H](O)[C@H]2O)[C@@H](O)[C@@H](O)[C@@H]1O` [compound 2, mannotrehalose]: it took 1130 µM to reach half-maximal inhibition (IC50).
